Assay results reported in patent publication EP1954678B1, “NOVEL NK1 AND NK2 ANTAGONISTS” (Abbott Products GmbH, priority 2005, dated 2007).
Blank lines part the entries; values can stand above or below the compound they belong to.

Tests used:
human NK1 receptors = target: T1, human NK1 receptors (Homo sapiens, UniProt P25103); assay: Binding of the test substances to NK1 receptors in vitro ([3H]-Substance P displacement, CHO cell membranes); settings: [3H]-Substance P as ligand; membranes of CHO cells expressing the human NK1 receptor; Ki calculated from IC50; read-out: pKi (NK1) (converted)
T1 construct: expressed in transfected cells; host or cells: CHO cells (membrane preparation)
Description: In The Netherlands, the affinity of the test substances to human NK1 receptors was measured in vitro.
The receptor binding studies were performed with [^3H]-Substance P as ligand. For the binding test, different samples of a membrane preparation of CHO cells (= egg cells of the Chinese hamster, Chinese hamster oocytes), which express the human NK1 receptor ("Accession Number" of the associated nucleic acid sequence = M74290; "Accession Number" of the associated protein sequence = P25103; cf. Takeda, Y.; Chou, K. B., Takeda, J.; Sachais, B.S. and Krause, J. E; Biochemical and Biophysical Research Communications, 179(3) (1991) 1232 - 1240), were incubated with a solution of the marked ligand, with the incubation mixtures containing no test substance or additions of different concentrations of test substance. Then, separation of bound and free ligands was performed in each of the samples with the aid of glass-fibre filtration. The fraction remaining in the filter was washed several times with buffer solution and then the radioactivity of the fraction remaining in the filter was measured using a beta scintillation counter.
For the compounds of Examples 1 to 14, that concentration which effects half maximum displacement of the bound ligand was determined as IC50 of the respective test substance. From this, the corresponding inhibition constant (Ki value) of the test substance was calculated, and was stated as the negative common logarithm of the Ki value (= pKi value). The pKi value is a measurement of the affinity of the test substances to human NK1 receptors.

human NK2 receptors = target: T2, human NK2 receptors (Homo sapiens, UniProt P21452); assay: Binding of the test substances to NK2 receptors in vitro ([3H]-SR 48968 displacement, CHO cell membranes); settings: [3H]-SR 48968 as ligand; membranes of CHO cells expressing the human NK2 receptor; 90 min incubation; Ki calculated from IC50; read-out: pKi (NK2) (converted)
T2 construct: expressed in transfected cells; host or cells: CHO cells (membrane preparation)
T2 sequence (P21452 1-398): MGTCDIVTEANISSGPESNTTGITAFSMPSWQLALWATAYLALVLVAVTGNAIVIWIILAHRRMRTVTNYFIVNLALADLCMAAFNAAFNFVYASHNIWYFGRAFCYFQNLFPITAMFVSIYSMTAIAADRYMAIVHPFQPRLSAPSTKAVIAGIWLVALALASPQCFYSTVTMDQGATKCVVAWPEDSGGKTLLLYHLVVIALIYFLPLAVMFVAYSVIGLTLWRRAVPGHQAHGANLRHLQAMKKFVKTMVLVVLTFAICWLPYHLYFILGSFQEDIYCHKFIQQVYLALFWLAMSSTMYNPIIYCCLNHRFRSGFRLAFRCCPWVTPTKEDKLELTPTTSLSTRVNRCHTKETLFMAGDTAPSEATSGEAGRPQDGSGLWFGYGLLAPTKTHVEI
Description: The affinity of the test substances to human NK2 receptors was measured in vitro. The ability of the test substances to displace the selective NK2 receptor antagonist SR 48968 (= saredutant) used as reference ligand from its corresponding bond was determined.
The receptor binding studies were carried out with radioactively marked [^3H]-SR 48968 (from Amersham) as ligand. For the binding test, different samples of a membrane preparation of CHO cells (= egg cells of the Chinese hamster, Chinese hamster oocytes), which express the human NK2 receptor (for preparation, see N.P. Gerard et al., Journal of Biological Chemistry 265/33 (1990) 20455-20462), were incubated for 90 minutes (= min.) with a solution of the marked ligand, with the incubation mixtures containing no test substance or additions of different concentrations of test substance. Then in each case the membrane-bound ligands in the samples were separated from free ligands by filtration. The fraction remaining in the filter was washed several times with buffer solution, before its radioactivity was measured using a liquid scintillation counter. That concentration which effects half-maximum displacement of the bound reference ligand was determined as IC50 of the respective test substance. The inhibition constant (Ki value) of the test substance was calculated from the respective IC50 value, and was stated as the negative logarithmised value thereof (pKi).
If several measurements were performed, the average thereof was listed each time. The pKi value is a measurement of the affinity of the test substances to human NK2 receptors.

[1] = target: T3, cloned human NK1 receptors (Homo sapiens, UniProt P25103); assay: Ca2+ measurements using FLIPR for NK1 activity in CHO cells; assay type: cell-based; settings: substance P 10^-8 M as agonist; compound applied 7 min before; pA2 calculated from IC50
T3 construct: expressed in transfected cells
From the text: (§1) The NK receptor is coupled to Gq.
(§2) All steps were done under sterile conditions. […] The results are summarized in table 5: Table 5: pA2 data for NK1 and NK2: […]

[2] = target: T4, cloned human NK2 receptors (Homo sapiens, UniProt P21452); assay: Ca2+ measurements using FLIPR for NK2 activity in CHO cells; assay type: cell-based; settings: NKA 10^-7 M as agonist; compound applied 7 min before; pA2 calculated from IC50
T4 construct: expressed in transfected cells
T4 sequence (P21452 1-398): T2 sequence (P21452 1-398)
From the text: as §1, §2

T1 sequence (P25103 whole entry): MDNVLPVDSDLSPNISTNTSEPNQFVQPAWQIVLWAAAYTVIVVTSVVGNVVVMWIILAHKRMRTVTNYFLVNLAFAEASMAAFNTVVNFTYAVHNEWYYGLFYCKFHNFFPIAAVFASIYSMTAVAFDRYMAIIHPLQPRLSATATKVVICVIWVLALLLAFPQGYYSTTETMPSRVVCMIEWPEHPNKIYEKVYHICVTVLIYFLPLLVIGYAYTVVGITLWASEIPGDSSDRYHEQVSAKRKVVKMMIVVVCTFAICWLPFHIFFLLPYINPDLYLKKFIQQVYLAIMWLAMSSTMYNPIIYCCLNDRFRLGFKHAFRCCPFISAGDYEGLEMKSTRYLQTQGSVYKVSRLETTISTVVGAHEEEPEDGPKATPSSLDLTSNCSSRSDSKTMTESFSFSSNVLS
T3 sequence (P25103 whole entry): as above

Structure (SMILES): CN(C[C@@H](CCN1CCN([C@@H](c2ccco2)[C@H](O)[C@H](O)[C@H](O)CO)CC1)c1ccc(Cl)c(Cl)c1)C(=O)c1cc(C#N)cc2ccccc12 [Compound 3, 3-cyano-N-[(2S)-2-(3,4-dichlorophenyl)-4-{4-[(1R,2S,3S,4R)-1-(2-furyl)-2,3,4,5-tetrahydroxypentyl]piperazin-1-yl}butyl]-N-methyl-1-naphthamide]
Ki (human NK1 receptors): 1.58 nM | Ki (human NK2 receptors): 63.1 nM

Structure (SMILES): CN(C[C@@H](CCN1CCN([C@@H](c2ccsc2)[C@H](O)[C@H](O)[C@H](O)CO)CC1)c1ccc(Cl)c(Cl)c1)C(=O)c1cc(C#N)cc2ccccc12 [Compound 4, 3-cyano-N-[(2S)-2-(3,4-dichlorophenyl)-4-{4-[(1S,2S,3S,4R)-2,3,4,5-tetrahydroxy-1-(3-thienyl)pentyl]piperazin-1-yl}butyl]-N-methyl-1-naphthamide]
Ki (human NK1 receptors): 2.51 nM | Ki (human NK2 receptors): 126 nM

Structure (SMILES): CN(C[C@@H](CCN1CCN([C@@H](c2ccoc2)[C@H](O)CO)CC1)c1ccc(Cl)c(Cl)c1)C(=O)c1cc(C#N)cc2ccccc12 [Compound 12, 3-cyano-N-[(2S)-2-(3,4-dichlorophenyl)-4-{4-[(1S,2S)-1-(3-furyl)-2,3-dihydroxypropyl]piperazin-1-yl}butyl]-N-methyl-1-naphthamide]
Ki (human NK1 receptors): 10 nM | Ki (human NK2 receptors): 100 nM

Structure (SMILES): CN(C[C@@H](CCN1CCN(C(c2ccco2)C(O)CO)CC1)c1ccc(Cl)c(Cl)c1)C(=O)c1cc(C#N)cc2ccccc12 (stereo partly drawn) [Compound 14, 3-cyano-N-[(2S)-2-(3,4-dichlorophenyl)-4-{4-[1-(2-furyl)-2,3-dihydroxypropyl]piperazin-1-yl}butyl]-N-methyl-1-naphthamide]
Kb [1]: 0.398 nM | Ki (human NK1 receptors): 5.01 nM | Ki (human NK2 receptors): 12.6 nM | Kb [2]: 3.16 nM

Structure (SMILES): COc1ccc([C@@H]([C@H](O)CO)N2CCN(CC[C@H](CN(C)C(=O)c3cc(C#N)cc4ccccc34)c3ccc(Cl)c(Cl)c3)CC2)cc1 [Compound 16, 3-cyano-N-[(2)-2-(3,4-dichlorophenyl)-4-{4-[(1S,2S)-2,3-dihydroxy-1-(4-methoxyohenyl)propyl]piperazin-1-yl}butyl]-N-methyl-1-naphthamide]
pA2 (NK1) [1]: 9,3 | pA2 (NK2) [2]: 9,1

Structure (SMILES): CN(C[C@@H](CCN1CCN([C@@H](c2ccc(Cl)s2)[C@H](O)CO)CC1)c1ccc(Cl)c(Cl)c1)C(=O)c1cc(C#N)cc2ccccc12 [Compound 18, N-[(2S)-4-{4-[(1R,2S)-1-(5-chloro-2-thienyl)-2,3-dihydroxypropyl]piperazin-1-yl}-2-(3,4-dichlorophenyl)butyl]-3-cyano-N-methyl-1-naphthamide]
Kb [1]: 6.31 nM | Ki (human NK1 receptors): 3.16 nM | Ki (human NK2 receptors): 158 nM | Kb [2]: 2.51 nM

Structure (SMILES): CN(C[C@@H](CCN1CCN([C@@H](c2ccc3c(c2)OCO3)[C@H](O)CO)CC1)c1ccc(Cl)c(Cl)c1)C(=O)c1cc(C#N)cc2ccccc12 [Compound 21, N-[(2S)-4-{4-[(1S,2S)-1-(1,3-benzodioxol-5-yl)-2,3-dihydroxypropyl]piperazin-1-yl}-2-(3,4-dichlorophenyl)butyl]-3-cyano-N-methyl-1-naphthamide]
Kb [1]: 0.794 nM | Ki (human NK1 receptors): 2 nM | Ki (human NK2 receptors): 398 nM | Kb [2]: 0.316 nM

Structure (SMILES): CN(C[C@@H](CCN1CCN([C@@H](c2cc3ccccc3s2)[C@H](O)CO)CC1)c1ccc(Cl)c(Cl)c1)C(=O)c1cc(C#N)cc2ccccc12 [Compound 22, N-[(2S)-4-{4-[(1R,2S)-1-(1-benzothien-2-yl)-2,3-dihydroxypropyl]piperazin-1-yl}-2-(3,4-dichlorophenyl)butyl]-3-cyano-N-methyl-1-naphthamide]
Kb [1]: 7.94 nM | Ki (human NK1 receptors): 3.98 nM | Ki (human NK2 receptors): 1000 nM | Kb [2]: 3.16 nM

Structure (SMILES): CN(C[C@@H](CCN1CCN(C(CO)c2ccco2)CC1)c1ccc(Cl)c(Cl)c1)C(=O)c1cc(C#N)cc2ccccc12 (stereo partly drawn) [Compound 25, 3-cyano-N-[(2S)-2-(3,4-dichlorophenyl)-4-{4-[1-(2-furyl)-2-hydroxyethyl]piperazin-1-yl}butyl]-N-methyl-1-naphthamide]
Kb [1]: 3.16 nM | Ki (human NK1 receptors): 7.94 nM | Ki (human NK2 receptors): 39.8 nM | Kb [2]: 1 nM

Structure (SMILES): CN(C[C@@H](CCN1CCN(C(CO)c2ccco2)CC1)c1ccc(Cl)c(Cl)c1)C(=O)c1cc(C#N)cc2ccccc12 (stereo partly drawn) [Compound 28, 3-cyano-N-[(2S)-2-(3,4-dichlorophenyl)-4-{4-[1-(2-furyl)-2-hydroxyethyl]piperazin-1-yl}butyl]-N-methyl-1-naphthamide]
Kb [1]: 2 nM | Ki (human NK1 receptors): 12.6 nM | Ki (human NK2 receptors): 50.1 nM | Kb [2]: 25.1 nM

Other lines, results leading:

Kb [1]: 20 nM | Ki (human NK1 receptors): 31.6 nM | Ki (human NK2 receptors): 3160 nM | Kb [2]: 20 nM
Structure (SMILES): CN(C[C@@H](CCN1CCN([C@@H](c2cc3ccccc3o2)[C@H](O)CO)CC1)c1ccc(Cl)c(Cl)c1)C(=O)c1cc(C#N)cc2ccccc12 [Compound 17, N-[(2S)-4-{4-[(1R,2S)-1-(1-benzofuran-2-yl)-2,3-dihydroxypropyl]piperazin-1-yl}-2-(3,4-dichlorophenyl)butyl]-3-cyano-N-methyl-1-naphthamide]

pA2 (NK1) [1]: 8,1 | pA2 (NK2) [2]: 7,8
Structure (SMILES): CN(CC(CCN1CCN(C(Cc2ccccc2)C(O)CO)CC1)c1ccc(Cl)c(Cl)c1)C(=O)c1cc(C#N)cc2ccccc12 (stereo not drawn) [Compound 24]

pA2 (NK1) [1]: 8,0 | pA2 (NK2) [2]: 7,4
Structure (SMILES): CC(=O)OCC(O)C(Cc1ccccc1)N1CCN(CCC(CN(C)C(=O)c2cc(C#N)cc3ccccc23)c2ccc(Cl)c(Cl)c2)CC1 (stereo not drawn) [Compound 26]

pA2 (NK1) [1]: 9,2 | pA2 (NK2) [2]: 8,1
Structure (SMILES): CC(=O)OC[C@@H](OC(C)=O)[C@H](c1ccco1)N1CCN(CC[C@H](CN(C)C(=O)c2cc(C#N)cc3ccccc23)c2ccc(Cl)c(Cl)c2)CC1 [Compound 27, (2S,3R)-2-(acetyloxy)-3-{4-[(3S)-4-[3-cyano-1-naphthoyl)(methyl)amino]-3-(3,4-dichlorophenyl)butyl]piperazin-1-yl}-3-(2-furyl)propyl acetate]
